Assay results: patent US20260055083A1, “APOL1 INHIBITORS AND METHODS OF USE” (Maze Therapeutics, Inc., priority 2022, published 2026)
pEC50: −log10 of the molar value.

What was measured:
APOL1 G2 [1] = biological target: T1, APOL1 G2 (Homo sapiens, UniProt O14791, DEL388-389); experiment: APOL1 G2 HEK293 rescue of cell death caused by overexpression of APOL1 (CellTiter-Glo); type: cell-based; conditions: HEK293/T-REx APOL1 G2 clone #2, doxycycline induction, 17 hours, CellTiter-Glo luminescence; reversal of cell death; geometric mean of at least 2 assay runs
T1 construct: expressed in transfected cells; host or cells: HEK293/T-REx APOL1 G2 clone #2, doxycycline-inducible
T1 sequence (O14791 with tags, fused parts or gaps DEL388-389): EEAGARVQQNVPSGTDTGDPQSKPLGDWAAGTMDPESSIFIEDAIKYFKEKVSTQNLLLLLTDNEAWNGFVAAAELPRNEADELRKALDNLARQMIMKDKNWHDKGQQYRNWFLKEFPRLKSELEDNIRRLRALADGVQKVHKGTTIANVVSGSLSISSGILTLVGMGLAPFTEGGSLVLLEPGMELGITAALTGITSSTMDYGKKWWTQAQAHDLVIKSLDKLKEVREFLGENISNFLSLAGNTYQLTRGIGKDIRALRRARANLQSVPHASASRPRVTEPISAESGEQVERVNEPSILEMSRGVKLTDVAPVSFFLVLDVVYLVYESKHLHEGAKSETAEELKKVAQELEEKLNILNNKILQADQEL
Procedure, shortened: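 Doxycycline (6 ng/mL)-induced HEK293/T-REx APOL1 G2 clone seeded at 5,000 cells/well with compound in duplicate 8-point 3-fold series (0.5% DMSO), 17 h at 37 °C. CellTiter-Glo luminescence; EC50 from four-parameter logistic fit, geometric mean of ≥2 runs.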

APOL1 G2 [2] = biological target: T1, APOL1 G2; experiment: APOL1 G2 FLIPR calcium influx assay (HEK T-REx/GCaMP6f/APOL1 G2 K6.3 cells); type: cell-based; conditions: HEK293 clone expressing GCaMP6f, doxycycline-induced APOL1 G2; prevention of calcium influx; geometric mean of at least 2 assay runs
Procedure, shortened: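 HEK293 clone stably expressing GCaMP6f, APOL1 G2 induced with doxycycline for 6 h; compounds (duplicate 8-point dose response) preincubated 10 min at room temperature in Ca2+-free Tyrode's buffer, pH 7.4. Ca2+ added to 5 mM final, influx read on FLIPR; AC50 is geometric mean of ≥2 runs.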

Row | Structure (SMILES) | AC50 (APOL1 G2 [2]) [nM] | pEC50 (APOL1 G2 [1])
1 | CS(=O)(=O)c1ccc(OC[C@@H]2CN(CCc3cccc(C#N)c3)C[C@H]2CO)cc1 [Compound 25, 3-{2-[(3S,4S)-3-(hydroxymethyl)-4-[(4-methanesulfonylphenoxy)methyl]pyrrolidin-1-yl]ethyl}benzonitrile] | 343 | 6.00
2 | CC(Cc1cc(Cl)cc(C#N)c1)N1C[C@@H](COc2ccc(S(C)(=O)=O)cc2)C[C@H]1C (single isomer, unassigned) [Compound 11, 3-chloro-5-[(2R or 2S)-2-[(2R,4S)-4-[(4-methanesulfonylphenoxy)methyl]-2-methylpyrrolidin-1-yl]propyl]benzonitrile] | 1130 | 6.86
3 | C[C@@H]1C[C@H](COc2ccc(S(=O)(=O)CCCS(C)(=O)=O)cc2)CN1C1CCc2ccc(Cl)cc2C1 (stereo partly drawn) [Compound 52, (2R,4S)-1-[7-chloro-1,2,3,4-tetrahydronaphthalen-2-yl]-4-{[4-(3-methanesulfonylpropanesulfonyl)phenoxy]methyl}-2-methylpyrrolidine] | 1020 | 7.06
4 | C[C@@H]1C[C@H](COc2ccc(S(C)(=O)=O)cn2)CN1CCc1cc(Cl)cc(C#N)c1 [Compound 12, 3-chloro-5-{2-[(2R,4S)-4-{[(5-methanesulfonylpyridin-2-yl)oxy]methyl}-2-methylpyrrolidin-1-yl]ethyl}benzonitrile] | 279 | 7.00
5 | C[C@@H]1CN(CCc2cccc(C#N)c2)C[C@H]1COc1ccc(S(C)(=O)=O)c(C#N)c1 [Compound 86, 5-{[(3S,4S)-1-[2-(3-cyanophenyl)ethyl]-4-methylpyrrolidin-3-yl]methoxy}-2-methanesulfonylbenzonitrile] | 117 | 7.69
6 | C[C@@H]1C[C@H](COc2ccc(S(=O)(=O)CCCS(C)(=O)=O)cc2)CN1C1CCc2ccc(C#N)cc2C1 (single isomer, unassigned) [Compound 34, (7R or 7S)-7-[(2R,4S)-4-{[4-(3-methanesulfonylpropanesulfonyl)phenoxy]methyl}-2-methylpyrrolidin-1-yl]-5,6,7,8-tetrahydronaphthalene-2-carbonitrile] | 951 | 7.06
7 | C[C@@H]1C[C@H](COc2ccc(S(=O)(=O)CCS(C)(=O)=O)cc2)CN1C1CCc2c(C#N)cc(Cl)cc2C1 (stereo partly drawn) [Compound 46, 3-chloro-6-[(2R,4S)-4-{[4-(2-methanesulfonylethanesulfonyl)phenoxy]methyl}-2-methylpyrrolidin-1-yl]-5,6,7,8-tetrahydronaphthalene-1-carbonitrile] | 1610 | 6.38

The next lines start with results.

Row | AC50 (APOL1 G2 [2]) [nM] | Structure (SMILES) | pEC50 (APOL1 G2 [1])
8 | 1040 | Cc1cc(OC[C@H]2C[C@@H](C)N(CC(O)c3cccc(C#N)c3)C2)cnc1S(C)(=O)=O (single isomer, unassigned) [Compound 95, 3-[(1R or 1S)-1-hydroxy-2-[(2R,4S)-4-{[(6-methanesulfonyl-5-methylpyridin-3-yl)oxy]methyl}-2-methylpyrrolidin-1-yl]ethyl]benzonitrile] | 5.94
9 | 575 | CC(C(O)c1cc(Cl)cc(C#N)c1)N1C[C@@H](COc2ccc(S(C)(=O)=O)cc2)[C@H](C)C1 (single isomer, unassigned) [Compound 100, 3-chloro-5-((1R,2S or 1S,2R)-1-hydroxy-2-((3S,4S)-3-methyl-4-((4-(methylsulfonyl)phenoxy)methyl)pyrrolidin-1-yl)propyl)benzonitrile] | 6.02
10 | 1690 | CC(C(O)c1cc(Cl)cc(C#N)c1)N1C[C@@H](COc2ccc(S(C)(=O)=O)cc2)C[C@H]1C (single isomer, unassigned) [Compound 99, 3-chloro-5-[(1S,2R or 1R,2S or 1S,2S or 1R,2R)-1-hydroxy-2-[(2R,4S)-4-[(4-methanesulfonylphenoxy)methyl]-2-methylpyrrolidin-1-yl]propyl]benzonitrile] | 6.60
11 | 379 | CC(c1ccc(OC[C@@H]2CN(CCc3cccc(Cl)c3)CCN2)cc1)S(C)(=O)=O (stereo partly drawn) [Compound 140, (3S)-1-[2-(3-chlorophenyl)ethyl]-3-{[4-(1-methanesulfonylethyl)phenoxy]methyl}piperazine] | 6.12
12 | 1250 | CS(=O)(=O)c1ccc(OC[C@@H]2CN(C(CO)Cc3cccc(Cl)c3)CCN2)cc1 (single isomer, unassigned) [Compound 118, (2R or 2S)-3-(3-chlorophenyl)-2-[(3S)-3-[(4-methanesulfonylphenoxy)methyl]piperazin-1-yl]propan-1-ol] | < 5.00
13 | 2220 | C[C@@H]1CN(CC(CO)c2cc(Cl)cc(C#N)c2)C[C@H]1COc1ccc(S(C)(=O)=O)cc1 (single isomer, unassigned) [Compound 127, 3-chloro-5-[(2R or 2S)-1-hydroxy-3-[(3S,4S)-3-[(4-methanesulfonylphenoxy)methyl]-4-methylpyrrolidin-1-yl]propan-2-yl]benzonitrile] | < 5.00
14 | 337 | CN1CC(S(=O)(=O)c2ccc(OC[C@@H]3CN(CCc4cccc(Cl)c4)CCN3)cc2)C1 [Compound 108, (3S)-1-[2-(3-chlorophenyl)ethyl]-3-({4-[(1-methylazetidin-3-yl)sulfonyl]phenoxy}methyl)piperazine] | 6.18
